Where “and” joins values, the source holds several entries; their conditions need not be identical. Identical values can stand only once.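 Dose response: 5 concentrations. Exposure: 48 h. Format: 96-well plates. Endpoint: linear interpolation; highest concentration if not reached. The concentration for 50% growth inhibition is given as GI50.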 Calls of active or inactive are those of the source. No stated cut-off is given here; in the data, active = GI50 up to about 1.1 µM and inactive = higher.
What was measured:
Experiment in all cases: DTP human tumour cell line panel, 48 h
[1] = system: A549
[2] = system: EKVX
[3] = system: HL-60
[4] = system: IGROV-1
[5] = system: KM12
[6] = system: MOLT-4
[7] = system: RPMI-8226
[8] = system: RXF 393
[9] = system: SK-MEL-5
[10] = system: SK-OV-3
[11] = system: UACC-257
[12] = system: UACC-62
[13] = system: HCT-116
[14] = system: OVCAR-4
[15] = system: SNB-19

| Compound | GI50 [1] | GI50 [2] | GI50 [3] | GI50 [4] | GI50 [5] | GI50 [6] | GI50 [7] | GI50 [8] | GI50 [9] | GI50 [10] | GI50 [11] | GI50 [12] | GI50 [13] | GI50 [14] | GI50 [15] |
| --- | --- | --- | --- | --- | --- | --- | --- | --- | --- | --- | --- | --- | --- | --- | --- |
| Cc1nc(-n2nc(-c3ccccc3)cc2-c2ccccc2)sc1C(=O)/C=C/c1ccc(Cl)cc1 | 19.5 µM (inactive) | 13.4 µM (inactive) | 14.5 µM (inactive) | 27.7 µM (inactive) | 11.7 µM (inactive) | 11.7 µM (inactive) | 5.66 µM (inactive) | 12.7 µM (inactive) | 13.2 µM (inactive) | 28.1 µM (inactive) | 20.1 µM (inactive) | 14.1 µM (inactive) |  |  |  |
| COc1cc2c(c(OC)c1OC)-c1ccc(SC)c(=O)cc1C(CO)C2 (stereo not drawn) | 0.22 µM (active) | 0.603 µM (active) | 0.0682 µM (active) | 0.169 µM (active) | 0.0813 µM (active) | 0.596 µM (active) | < 0.01 µM (active) | 0.104 µM (active) | 0.172 µM (active) | 0.109 µM (active) | 0.0578 µM (active) | 0.0414 µM (active) | 0.12 µM (active) | 0.769 µM (active) | 0.802 µM (active) |
| CCCCCC1CC=CC(NC(=O)OCc2ccccc2)C1/C=C/CCCC1OCCO1 (stereo not drawn) | 23.3 µM (inactive) | 96.6 µM (inactive) | 7.93 µM (inactive) | > 100 µM (inactive) | 48 µM (inactive) | 12.5 µM (inactive) | 17.9 µM (inactive) | 15.1 µM (inactive) | 17.9 µM (inactive) | > 100 µM (inactive) | 50.7 µM (inactive) | > 93.5 µM (inactive) | 35.8 µM (inactive) | > 72.9 µM (inactive) | 74.1 µM (inactive) |
| [N-]=[N+]=NC(c1cn(C2CC(O)C(CO)O2)c(=O)[nH]c1=O)C(I)I (stereo not drawn) | > 100 µM (inactive) | > 100 µM (inactive) | > 100 µM (inactive) | 87.7 µM (inactive) | > 100 µM (inactive) | > 100 µM (inactive) | > 100 µM (inactive) | > 100 µM (inactive) | > 100 µM (inactive) | > 100 µM (inactive) | > 100 µM (inactive) | > 100 µM (inactive) | > 100 µM (inactive) | 75.7 µM (inactive) | > 100 µM (inactive) |
| C/C(=N\NC(=O)c1ccccc1O)C1=CNc2ccccc2S1 | 3.63 µM (inactive) | 15.3 µM (inactive) | 3.54 µM (inactive) | 5.92 µM (inactive) | 3.94 µM (inactive) | 2.08 µM (inactive) | 4.9 µM (inactive) |  | 6.89 µM (inactive) | 15.6 µM (inactive) | 3.1 µM (inactive) | 2.44 µM (inactive) | 3.66 µM (inactive) | 5.85 µM (inactive) | 5.56 µM (inactive) |
| Cn1ncc(=S)[nH]c1=S | > 100 µM (inactive) | > 100 µM (inactive) |  | > 100 µM (inactive) |  | > 100 µM (inactive) | > 100 µM (inactive) | > 100 µM (inactive) |  | > 100 µM (inactive) |  | > 100 µM (inactive) | > 100 µM (inactive) | > 100 µM (inactive) | > 100 µM (inactive) |
| CCCCCn1cnc2c1S(=O)(=O)N(C)C(NC(=O)c1ccccc1)=N2 | > 100 µM (inactive) | > 100 µM (inactive) | > 100 µM (inactive) | > 100 µM (inactive) | > 100 µM (inactive) | > 100 µM (inactive) | > 100 µM (inactive) |  | > 100 µM (inactive) | > 100 µM (inactive) | > 100 µM (inactive) | > 100 µM (inactive) | > 100 µM (inactive) | > 100 µM (inactive) | > 100 µM (inactive) |
| CN(C)C(=N)NC(N)=S | > 100 µM (inactive) | > 100 µM (inactive) | > 100 µM (inactive) | > 100 µM (inactive) | > 100 µM (inactive) | > 100 µM (inactive) | > 100 µM (inactive) | > 100 µM (inactive) |  | > 100 µM (inactive) | > 100 µM (inactive) | > 100 µM (inactive) | > 100 µM (inactive) | > 100 µM (inactive) | > 100 µM (inactive) |
| COc1ccc(N2C(=O)c3c(c4[nH]c5ccccc5c4c4ccc(C(C)(C)C)cc34)C2=O)cc1 | 47.1 µM (inactive) | 64 µM (inactive) |  | > 100 µM (inactive) | 64.9 µM (inactive) | 21.6 µM (inactive) |  | 45.7 µM (inactive) | > 100 µM (inactive) | 42.1 µM (inactive) | > 100 µM (inactive) | 20.1 µM (inactive) | 69.7 µM (inactive) | 20.3 µM (inactive) | 54.2 µM (inactive) |
| Cc1ccc(S(=O)(=O)NNS(C)(=O)=O)cc1 | > 100 µM (inactive) | > 100 µM (inactive) |  | > 100 µM (inactive) | > 100 µM (inactive) | > 100 µM (inactive) | > 100 µM (inactive) | > 100 µM (inactive) | > 100 µM (inactive) |  | > 100 µM (inactive) | > 100 µM (inactive) | > 100 µM (inactive) | > 100 µM (inactive) | > 100 µM (inactive) |
| CCOc1ccccc1NC(=O)CCc1n[nH]c(=S)o1 | > 100 µM (inactive) | > 100 µM (inactive) | > 100 µM (inactive) | > 10 µM (inactive) | > 100 µM (inactive) | > 100 µM (inactive) | > 100 µM (inactive) |  | > 100 µM (inactive) | > 100 µM (inactive) | > 100 µM (inactive) | > 100 µM (inactive) | > 100 µM (inactive) |  | > 100 µM (inactive) |
| Cc1cccc(-c2nnc(S)[nH]2)c1 | > 100 µM (inactive) | > 100 µM (inactive) | > 100 µM (inactive) | > 100 µM (inactive) | > 100 µM (inactive) | 89.5 µM (inactive) | > 100 µM (inactive) |  | > 100 µM (inactive) | > 100 µM (inactive) | > 100 µM (inactive) | > 100 µM (inactive) | > 100 µM (inactive) | > 100 µM (inactive) | > 100 µM (inactive) |
| Nc1nc(SCc2ccc([N+](=O)[O-])cc2)nc2c1ncn2C1OC(CO)C(O)C1O (stereo not drawn) | > 100 µM (inactive) | > 100 µM (inactive) | > 100 µM (inactive) | > 100 µM (inactive) | > 100 µM (inactive) | > 100 µM (inactive) | > 100 µM (inactive) | > 100 µM (inactive) | > 100 µM (inactive) |  | > 100 µM (inactive) |  | > 100 µM (inactive) | > 100 µM (inactive) | > 100 µM (inactive) |
| CCOC(=O)C1Oc2ccc([N+](=O)[O-])cc2C1(C)O (stereo not drawn) | > 100 µM (inactive) | > 100 µM (inactive) | > 100 µM (inactive) | > 100 µM (inactive) | > 100 µM (inactive) | > 100 µM (inactive) | > 100 µM (inactive) | > 100 µM (inactive) | > 100 µM (inactive) | > 100 µM (inactive) | > 100 µM (inactive) | > 100 µM (inactive) |  | > 100 µM (inactive) | > 100 µM (inactive) |
| C=CCOC1=C2CC[C@H](O)[C@@]2(C)CCC1=O | > 100 µM (inactive) | > 100 µM (inactive) | > 100 µM (inactive) | > 100 µM (inactive) | > 100 µM (inactive) | > 100 µM (inactive) | > 100 µM (inactive) | > 100 µM (inactive) | > 100 µM (inactive) | > 100 µM (inactive) | > 100 µM (inactive) | > 100 µM (inactive) | > 100 µM (inactive) | > 100 µM (inactive) | > 100 µM (inactive) |
| O=S1(=O)c2ccccc2N=C(c2ccccc2Cl)CC1c1ccc(F)cc1 (stereo not drawn) | 20 µM (inactive) | 18.1 µM (inactive) | 14.5 µM (inactive) | 17.4 µM (inactive) | 16.5 µM (inactive) | 13.7 µM (inactive) | 3.4 µM (inactive) | 6.68 µM (inactive) | 16.5 µM (inactive) | 43.2 µM (inactive) | 11.9 µM (inactive) | 15.8 µM (inactive) | 10.8 µM (inactive) | 18.4 µM (inactive) | 16.8 µM (inactive) |
| CC(=O)OCC1OC(n2c(=S)n(-c3ccccc3)c(=O)c3cc(Br)ccc32)C(OC(C)=O)C(OC(C)=O)C1OC(C)=O (stereo not drawn) | > 100 µM (inactive) | > 100 µM (inactive) | > 100 µM (inactive) | > 100 µM (inactive) | > 100 µM (inactive) | > 100 µM (inactive) and 94.6 µM (inactive) | > 100 µM (inactive) |  | > 100 µM (inactive) | > 100 µM (inactive) | > 100 µM (inactive) | > 100 µM (inactive) |  |  | > 100 µM (inactive) and 70.5 µM (inactive) |
| Cc1noc(C)c1C1=CCCCc2ccccc21 | > 100 µM (inactive) | 63.4 µM (inactive) | 21.7 µM (inactive) | > 100 µM (inactive) | > 100 µM (inactive) | 25.7 µM (inactive) | 25.9 µM (inactive) | 72.8 µM (inactive) | 34.1 µM (inactive) | > 100 µM (inactive) | > 100 µM (inactive) | 64.3 µM (inactive) | > 100 µM (inactive) | > 100 µM (inactive) | > 100 µM (inactive) |
| CC1=Nn2c(nnc2-c2ccccc2Cl)NC(C)(C)C1 | > 100 µM (inactive) | > 100 µM (inactive) | 50.9 µM (inactive) | > 100 µM (inactive) | > 100 µM (inactive) | 47.3 µM (inactive) | 26.1 µM (inactive) |  | > 100 µM (inactive) | > 100 µM (inactive) |  | > 100 µM (inactive) | > 100 µM (inactive) | > 100 µM (inactive) | > 100 µM (inactive) |
| C=CC/C=C/C/C=C/CCCCCCCc1cccc(O)c1C(=O)O | 33 µM (inactive) | 49 µM (inactive) | > 100 µM (inactive) | 33.6 µM (inactive) | 64 µM (inactive) | 42.8 µM (inactive) | 40.2 µM (inactive) |  |  | 25.2 µM (inactive) | 73.3 µM (inactive) | 31.1 µM (inactive) | > 100 µM (inactive) | 42.2 µM (inactive) | 34.9 µM (inactive) |

From ChEMBL document CHEMBL1201862, “PubChem BioAssay data set” (2004)
